Data on 21 molecules can be found in patent publication US10717716B2, “1,3,4-oxadiazole derivative compounds as histone deacetylase 6 inhibitor, and the pharmaceutical composition comprising the same” (Chong Kun Dang Pharmaceutical Corp., priority 2015, dated 2020).

Molecules are shown by their SMILES.

This assay deals with T1, human recombinant HDAC6 (Homo sapiens, UniProt Q9UBN7).
T1 construct: purchased Calbiochem 382180
T1 sequence (Q9UBN7 1-1215): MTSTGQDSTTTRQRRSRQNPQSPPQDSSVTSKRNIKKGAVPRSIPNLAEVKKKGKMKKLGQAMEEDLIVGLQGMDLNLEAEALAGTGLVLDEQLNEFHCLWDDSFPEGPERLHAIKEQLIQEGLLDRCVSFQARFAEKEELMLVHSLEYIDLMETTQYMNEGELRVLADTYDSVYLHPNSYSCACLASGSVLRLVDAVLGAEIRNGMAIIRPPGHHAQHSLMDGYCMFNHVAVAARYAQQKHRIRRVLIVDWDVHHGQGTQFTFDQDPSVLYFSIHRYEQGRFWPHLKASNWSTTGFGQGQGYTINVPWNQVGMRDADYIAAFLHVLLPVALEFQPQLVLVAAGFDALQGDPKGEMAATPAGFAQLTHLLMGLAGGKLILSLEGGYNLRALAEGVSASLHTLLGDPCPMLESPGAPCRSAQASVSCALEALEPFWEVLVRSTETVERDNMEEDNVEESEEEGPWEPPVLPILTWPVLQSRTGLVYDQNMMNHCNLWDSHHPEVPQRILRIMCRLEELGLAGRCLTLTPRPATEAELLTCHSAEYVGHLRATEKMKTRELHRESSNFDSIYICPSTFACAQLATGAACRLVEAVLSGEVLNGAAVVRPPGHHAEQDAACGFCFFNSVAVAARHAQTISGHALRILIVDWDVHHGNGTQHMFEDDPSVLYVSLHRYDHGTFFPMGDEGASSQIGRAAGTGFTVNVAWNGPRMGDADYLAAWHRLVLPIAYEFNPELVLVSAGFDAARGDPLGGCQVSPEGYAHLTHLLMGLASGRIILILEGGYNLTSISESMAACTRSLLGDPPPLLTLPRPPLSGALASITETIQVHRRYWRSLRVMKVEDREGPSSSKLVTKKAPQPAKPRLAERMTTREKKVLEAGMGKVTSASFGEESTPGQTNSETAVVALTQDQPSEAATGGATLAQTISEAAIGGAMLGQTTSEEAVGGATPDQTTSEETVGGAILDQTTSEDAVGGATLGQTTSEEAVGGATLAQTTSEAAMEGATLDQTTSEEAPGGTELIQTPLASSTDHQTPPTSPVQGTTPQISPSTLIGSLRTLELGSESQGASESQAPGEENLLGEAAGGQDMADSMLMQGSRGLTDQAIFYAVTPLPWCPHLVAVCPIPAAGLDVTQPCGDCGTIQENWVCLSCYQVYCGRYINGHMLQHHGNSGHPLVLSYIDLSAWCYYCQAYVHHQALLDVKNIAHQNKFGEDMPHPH
Description: HDAC6 enzyme activity inhibition assay (HDAC Fluorimetric Drug Discovery Kit). Particulars: for HDAC6 selectivity (fold): HDAC6 over HDAC1; for IC50: human recombinant HDAC6, same protocol as HDAC1, read-out: HDAC6. Format: biochemical. The method in brief:
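Fluorimetric deacetylase assay: 5-fold serial compound dilutions, 0.3 μg recombinant human enzyme (HDAC1 or HDAC6, same protocol), 10 μM Fluor de Lys-SIRT1 substrate, 60 min at 30 °C. Signal developed 30 min, measured at 360/460 nm; IC50 values derived.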

For `O=C(N1CCS(=O)(=O)CC1)N(Cc1ccc(-c2nnc(C(F)F)o2)cc1)c1ccccc1F` [Compound 21448, N-(4-(5-(difluoromethyl)-1,3,4-oxadiazol-2-yl)benzyl)-N-(2-fluorophenyl)thiomorpholine-4-carboxamide 1,1-dioxide], the “HDAC6 selectivity (fold)” value is recorded as 278 fold and the IC50 is 0.036 µM.
As for `O=C(N1CCS(=O)(=O)CC1)N(Cc1ccc(-c2nnc(C(F)(F)F)o2)cc1)c1ccccc1C(F)(F)F` [Compound 21449, N-(4-(5-(trifluoromethyl)-1,3,4-oxadiazol-2-yl)benzyl)-N-(2-(trifluoromethyl)phenyl)thiomorpholine-4-carboxamide 1,1-dioxide], the “HDAC6 selectivity (fold)” value is on record as 7 fold and the IC50 was 1.53 µM.
Consider `O=C(N1CCS(=O)(=O)CC1)N(Cc1ccc(-c2nnc(C(F)F)o2)cc1)c1ccccc1C(F)(F)F` [Compound 21450, N-(4-(5-(difluoromethyl)-1,3,4-oxadiazol-2-yl)benzyl)-N-(2-(trifluoromethyl)phenyl)thiomorpholine-4-carboxamide 1,1-dioxide], for which the “HDAC6 selectivity (fold)” value came to 19 fold and the IC50 was found to be 0.53 µM.
`Cc1ccccc1N(Cc1ccc(-c2nnc(C(F)(F)F)o2)cc1)C(=O)N1CCS(=O)(=O)CC1` [Compound 21451, N-(o-tolyl)-N-(4-(5-(trifluoromethyl)-1,3,4-oxadiazol-2-yl)benzyl)thiomorpholine-4-carboxamide 1,1-dioxide]: the “HDAC6 selectivity (fold)” value was 30 fold and the IC50 is 0.333 µM.
On to `Cc1ccccc1N(Cc1ccc(-c2nnc(C(F)F)o2)cc1)C(=O)N1CCS(=O)(=O)CC1` [Compound 21452, N-(4-(5-(difluoromethyl)-1,3,4-oxadiazol-2-yl)benzyl)-N-(o-tolyl)thiomorpholine-4-carboxamide 1,1-dioxide], for which the “HDAC6 selectivity (fold)” value is 93 fold and the IC50 worked out at 0.108 µM.
As for `COc1ccc(N(Cc2ccc(-c3nnc(C(F)F)o3)cc2)C(=O)N2CCS(=O)(=O)CC2)cc1` [Compound 21453, N-(4-(5-(difluoromethyl)-1,3,4-oxadiazol-2-yl)benzyl)-N-(4-methoxyphenyl)thiomorpholine-4-carboxamide 1,1-dioxide], the “HDAC6 selectivity (fold)” value is 85 fold and the IC50 is 0.117 µM.
For `COc1ccc(N(Cc2ccc(-c3nnc(C(F)(F)F)o3)cn2)C(=O)N2CCS(=O)(=O)CC2)cc1` [Compound 21454, N-(4-methoxyphenyl)-N-((5-(5-(trifluoromethyl)-1,3,4-oxadiazol-2-yl)pyridin-2-yl)methyl)thiomorpholine-4-carboxamide 1,1-dioxide], the “HDAC6 selectivity (fold)” value is 94 fold and the IC50 is 0.106 µM.
With `COc1ccc(N(Cc2ccc(-c3nnc(C(F)F)o3)cn2)C(=O)N2CCS(=O)(=O)CC2)cc1` [Compound 21455, N-((5-(5-(difluoromethyl)-1,3,4-oxadiazol-2-yl)pyridin-2-yl)methyl)-N-(4-methoxyphenyl)thiomorpholine-4-carboxamide 1,1-dioxide], the “HDAC6 selectivity (fold)” value was 294 fold and the IC50 worked out at 0.034 µM.
On the same counts, the results for `O=C(N1CCS(=O)(=O)CC1)N(Cc1ccc(-c2nnc(C(F)(F)F)o2)cc1)c1cccc(C(F)(F)F)n1` [Compound 21456, N-(4-(5-(trifluoromethyl)-1,3,4-oxadiazol-2-yl)benzyl)-N-(6-(trifluoromethyl)pyridin-2-yl)thiomorpholine-4-carboxamide 1,1-dioxide] are 17 fold and 0.578 µM.
As to `O=C(N1CCS(=O)(=O)CC1)N(Cc1ccc(-c2nnc(C(F)F)o2)cc1)c1cccc(C(F)(F)F)n1` [Compound 21457, N-(4-(5-(difluoromethyl)-1,3,4-oxadiazol-2-yl)benzyl)-N-(6-(trifluoromethyl)pyridin-2-yl)thiomorpholine-4-carboxamide 1,1-dioxide], the “HDAC6 selectivity (fold)” value is listed as 53 fold and the IC50 amounted to 0.19 µM.
For `CC(C)(C)c1ccc(N(Cc2ccc(-c3nnc(C(F)(F)F)o3)cc2)C(=O)N2CCS(=O)(=O)CC2)cc1` [Compound 21458, N-(4-(tert-butyl)phenyl)-N-(4-(5-(trifluoromethyl)-1,3,4-oxadiazol-2-yl)benzyl)thiomorpholine-4-carboxamide 1,1-dioxide], the “HDAC6 selectivity (fold)” value amounted to 1 fold.
On to `CC(C)(C)c1ccc(N(Cc2ccc(-c3nnc(C(F)F)o3)cc2)C(=O)N2CCS(=O)(=O)CC2)cc1` [Compound 21459, N-(4-(tert-butyl)phenyl)-N-(4-(5-(difluoromethyl)-1,3,4-oxadiazol-2-yl)benzyl)thiomorpholine-4-carboxamide 1,1-dioxide], for which the “HDAC6 selectivity (fold)” value was determined as 1 fold.
As to `CC(C)(C)c1ccc(N(Cc2ccc(-c3nnc(C(F)(F)F)o3)cc2F)C(=O)N2CCS(=O)(=O)CC2)cc1` [Compound 21460, N-(4-(tert-butyl)phenyl)-N-(2-fluoro-4-(5-(trifluoromethyl)-1,3,4-oxadiazol-2-yl)benzyl)thiomorpholine-4-carboxamide 1,1-dioxide], the “HDAC6 selectivity (fold)” value is 1 fold.
Turning to `CC(C)(C)c1ccc(N(Cc2ccc(-c3nnc(C(F)F)o3)cc2F)C(=O)N2CCS(=O)(=O)CC2)cc1` [Compound 21461, N-(4-(tert-butyl)phenyl)-N-(4-(5-(difluoromethyl)-1,3,4-oxadiazol-2-yl)-2-fluorobenzyl)thiomorpholine-4-carboxamide 1,1-dioxide], the “HDAC6 selectivity (fold)” value is 14 fold and the IC50 amounted to 0.731 µM.
Regarding `O=C(N1CCOCC1)N(Cc1ccccc1)Cc1ccc(-c2nnc(C(F)(F)F)o2)cc1` [Compound 21462, N-benzyl-N-(4-(5-(trifluoromethyl)-1,3,4-oxadiazol-2-yl)benzyl)morpholine-4-carboxamide], the “HDAC6 selectivity (fold)” value was 7 fold and the IC50 was found to be 1.42 µM.
`O=C(N1CCOCC1)N(Cc1ccc(-c2nnc(C(F)(F)F)o2)cc1)Cc1cccnc1` [Compound 21463, N-(pyridin-3-ylmethyl)-N-(4-(5-(trifluoromethyl)-1,3,4-oxadiazol-2-yl)benzyl)morpholine-4-carboxamide]: the “HDAC6 selectivity (fold)” value was determined as 2 fold and the IC50 came out at 4.53 µM.
Take `O=C(N1CCOCC1)N(Cc1ccncc1)Cc1ccc(-c2nnc(C(F)(F)F)o2)cc1` [Compound 21464, N-(pyridin-4-ylmethyl)-N-(4-(5-(trifluoromethyl)-1,3,4-oxadiazol-2-yl)benzyl)morpholine-4-carboxamide]: the “HDAC6 selectivity (fold)” value is on record as 6 fold and the IC50 turned out to be 1.73 µM.
As to `CN1CCN(C(=O)N(Cc2ccc(-c3nnc(C(F)F)o3)cc2F)c2cccc(Br)c2)CC1` [Compound 21465, N-(3-bromophenyl)-N-(4-(5-(difluoromethyl)-1,3,4-oxadiazol-2-yl)-2-fluorobenzyl)-4-methylpiperazine-1-carboxamide], the “HDAC6 selectivity (fold)” value came to 333 fold and the IC50 turned out to be 0.03 µM.
`CN1CCN(C(=O)N(Cc2ccc(-c3nnc(C(F)F)o3)cc2F)c2ccc(Br)cc2)CC1` [Compound 21466, N-(4-bromophenyl)-N-(4-(5-(difluoromethyl)-1,3,4-oxadiazol-2-yl)-2-fluorobenzyl)-4-methylpiperazine-1-carboxamide]: the “HDAC6 selectivity (fold)” value was 128 fold and the IC50 amounted to 0.078 µM.
On to `CN1CCN(C(=O)N(Cc2ccc(-c3nnc(C(F)F)o3)cc2F)c2cccc(Cl)c2)CC1` [Compound 21467, N-(3-chlorophenyl)-N-(4-(5-(difluoromethyl)-1,3,4-oxadiazol-2-yl)-2-fluorobenzyl)-4-methylpiperazine-1-carboxamide], for which the “HDAC6 selectivity (fold)” value is given as 323 fold and the IC50 came to 0.031 µM.
Take `CN1CCN(C(=O)N(Cc2ccc(-c3nnc(C(F)F)o3)cc2F)c2ccc(Cl)cc2)CC1` [Compound 21468, N-(4-chlorophenyl)-N-(4-(5-(difluoromethyl)-1,3,4-oxadiazol-2-yl)-2-fluorobenzyl)-4-methylpiperazine-1-carboxamide]: the “HDAC6 selectivity (fold)” value was found to be 159 fold and the IC50 was determined as 0.063 µM.
